In article PMC7413516, “Antidepressant-like activity and safety profile evaluation of 1H-imidazo[2,1-f]purine-2,4(3H,8H)-dione derivatives as 5-HT1A receptor partial agonists” (PLoS ONE, 2020):
Values joined by “and” are separate entries in the source; they are usually repeats but may differ in a detail not shown here. Equal values may be shown once. Marks after values point to notes of the source that are not given here.

Assays:
[1] = molecular target: T1, human serotonin 5-HT1A receptor (Homo sapiens, UniProt P08908); parameters: host or cells: CHO-K1; method as in Pytka et al. [14]; conditions: pERK1/2, CHO-K1 cells; ref Pytka et al. [14]; cited from earlier work
T1 sequence (P08908 1-422): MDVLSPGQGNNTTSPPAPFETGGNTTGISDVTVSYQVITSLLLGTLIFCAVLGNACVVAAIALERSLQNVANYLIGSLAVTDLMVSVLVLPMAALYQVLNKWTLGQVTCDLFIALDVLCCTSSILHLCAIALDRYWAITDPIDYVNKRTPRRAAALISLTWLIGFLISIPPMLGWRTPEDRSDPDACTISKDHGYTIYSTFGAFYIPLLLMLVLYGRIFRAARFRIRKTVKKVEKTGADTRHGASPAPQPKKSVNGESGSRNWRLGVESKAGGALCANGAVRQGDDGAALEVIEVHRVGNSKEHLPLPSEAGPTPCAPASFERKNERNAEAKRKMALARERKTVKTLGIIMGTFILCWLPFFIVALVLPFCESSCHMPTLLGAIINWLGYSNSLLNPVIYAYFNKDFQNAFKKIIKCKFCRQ

human serotonin 5-HT1AR = molecular target: T2, human serotonin 5-HT1AR (Homo sapiens, UniProt P08908); parameters: host or cells: CHO-K1; method as in Pytka et al. [14]; conditions: cAMP, CHO-K1 cells; ref Pytka et al. [14]; cited from earlier work
T2 sequence (P08908 1-422): T1 sequence (P08908 1-422)

human 5-HT1AR = molecular target: T3, human 5-HT1AR (Homo sapiens, UniProt P08908); parameters: TEV protease site; Gal4-VP16 transcription factor; host or cells: U2OS (Tango GPCR-bla U2OS parental line); method as in Pytka et al. [14]; conditions: β-arrestin, U2OS cells; ref Pytka et al. [14]; cited from earlier work
T3 sequence (P08908 1-422): T1 sequence (P08908 1-422)

mice [2] = experiment: Locomotor activity (Opto M3 activity monitor) in mice; assay type: in vivo, Swiss albino mice
Source text: The investigated compounds AZ-853 (8-(4-(4-(2-fluorophenyl)piperazin-1-yl)butyl)-1,3-dimethyl-1H-imidazo[2,1-f]purine-2,4(3H,8H)-dione and AZ-861 (1,3-dimethyl-8-(4-(4-(3-(trifluoromethyl)phenyl)piperazin-1-yl)butyl)-1H-imidazo[2,1-f]purine-2,4(3H,8H)-dione) were synthesised in the Department of Medicinal Chemistry, Faculty of Pharmacy, Jagiellonian University, and their synthesis was described earlier. AZ-853 and AZ-861 were suspended in 1% aqueous solution of Tween 80, and WAY-100635 (Sigma, Germany) was dissolved in 0.9% saline. In acute experiments, the selected compounds AZ-853 (0.156–2.5 mg/kg) and AZ-861 (0.625–2.5 mg/kg) were injected i.p. once 60 min before tests, whereas WAY-100635 (0.3 mg/kg) was administered subcutaneously (s.c.) 45 min before the test. […] In chronic experiments, AZ-853 and AZ-861 were administered i.p. once a day (between 9:00 AM and 10:00 AM) for 16 consecutive days at the minimum active doses selected from FST experiment, i.e. 0.625 and 1.25 mg/kg, respectively. […]. The control groups received 1% aqueous solution of Tween 80.
Locomotor activity was recorded with an Opto M3 multi-channel activity monitor (MultiDevice Software v.1.3, Columbus Instruments). The Swiss albino mice were individually placed in plastic cages (220 × 120 × 130 mm) for 30 min habituation period, and then the crossings of each channel (ambulation) were counted from […] to 6 min, that is the time equal to the observation period in FST. The cages were cleaned up with 70% ethanol after each mouse.
The Swiss albino mice were used in the experiment. AZ-853 and AZ-861 were injected once daily for 16 consecutive days. […]. FST, as described earlier, was performed on the 14th day just before the next treatment. To ensure that the effects observed in FST are not the result of increased motility of animals, on the 13th day, just before the next administration, the locomotor activity was measured as described earlier, from 2 to 6 min after test start, i.e. in the period identical to the duration of FST. Blood and organ collection was performed on the 17th day at 24 h after the last dose and fasting.

mice [3] = experiment: Forced swim test (FST) in mice; assay type: in vivo, Swiss albino mice; conditions: given alone, 0.3 mg/kg s.c., 45 min before test
Source text: The investigated compounds AZ-853 (8-(4-(4-(2-fluorophenyl)piperazin-1-yl)butyl)-1,3-dimethyl-1H-imidazo[2,1-f]purine-2,4(3H,8H)-dione and AZ-861 (1,3-dimethyl-8-(4-(4-(3-(trifluoromethyl)phenyl)piperazin-1-yl)butyl)-1H-imidazo[2,1-f]purine-2,4(3H,8H)-dione) were synthesised in the Department of Medicinal Chemistry, Faculty of Pharmacy, Jagiellonian University, and their synthesis was described earlier. AZ-853 and AZ-861 were suspended in 1% aqueous solution of Tween 80, and WAY-100635 (Sigma, Germany) was dissolved in 0.9% saline. In acute experiments, the selected compounds AZ-853 (0.156–2.5 mg/kg) and AZ-861 (0.625–2.5 mg/kg) were injected i.p. once 60 min before tests, whereas WAY-100635 (0.3 mg/kg) was administered subcutaneously (s.c.) 45 min before the test. […] In chronic experiments, AZ-853 and AZ-861 were administered i.p. once a day (between 9:00 AM and 10:00 AM) for 16 consecutive days at the minimum active doses selected from FST experiment, i.e. 0.625 and 1.25 mg/kg, respectively. All compounds were administered to mice at a volume of 10 ml/kg and to rats at a volume of 2 ml/kg. The control groups received 1% aqueous solution of Tween 80.
The experiment was carried out according to the method of Porsolt et al.. Swiss albino mice were individually placed in a glass cylinder (25 cm high; 10 cm in diameter) containing 10 cm of water maintained at 23–25°C, and were left there for 6 min. The total duration of immobility was recorded during the last 4 min of a 6-min. A mouse was regarded as immobile when it remained floating on the water, making only small movements to keep its head above it.
The Swiss albino mice were used in the experiment. AZ-853 and AZ-861 were injected once daily for 16 consecutive days. On the 1st and 15th day the administration of the compounds, 18-h spontaneous animal activity was registered (see below). FST, as described earlier, was performed on the 14th day just before the next treatment. To ensure that the effects observed in FST are not the result of increased motility of animals, on the 13th day, just before the next administration, the locomotor activity was measured as described earlier, from 2 to 6 min after test start, i.e. in the period identical to the duration of FST. Blood and organ collection was performed on the 17th day at 24 h after the last dose and fasting.

SMILES | Emax (%) ± SEM, agonist mode [1] | Emax (%) ± SEM, agonist mode (human serotonin 5-HT1AR) | Emax (%) ± SEM, agonist mode (human 5-HT1AR) | effect on spontaneous locomotor activity, acute administration (mice [2]; 4 min period identical to FST, AZ-853 0.625, 1.25, 2.5 mg/kg, AZ-861 1.25 mg/kg, WAY-100635 0.3 mg/kg alone or combined) | Number of movements (individual animals) (mice [2]; acute, WAY-100635 0.3 mg/kg alone, 3 to 6 min, raw data, 0.3 mg/kg) | Number of movements (mean) (mice [2]; acute, WAY-100635 alone 0.3 mg/kg s.c., 3 to 6 min) | effect on immobility in FST (mice [3])
COc1ccccc1N1CCN(CC(C(=O)NC(C)(C)C)c2ccccc2)CC1 (stereo not shown) [WAY-100135] | 2±1.0^c % | 2±0.5^c % | 1±0.5^c % | – | – | – | –
COc1ccccc1N1CCN(CCN(C(=O)C2CCCCC2)c2ccccn2)CC1 [WAY-100635, reference compound] | – | – | – | did not change the locomotor activity | 130 and 88 and 93 and 242 and 100 and 107 | 122.9 | had no effect on immobility
